Results published in PubChem BioAssay (NCI).
“And” between values parts separate entries of the source, which are not always exact repeats. Equal entries are not always repeated.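 Five compound concentrations were applied to cells in 96-well plates for 48 hours; endpoints were derived by simple linear interpolation of the resulting dose-response curve. Here, GI50 denotes the concentration required for 50% inhibition of growth. Definition used: TGI = concentration required for complete inhibition of growth.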

Key:
Assay in all cases: growth of human tumour cells (NCI), 48 h
NCI-H23 lung = tested on: NCI-H23 lung
HCT-15 colon = tested on: HCT-15 colon
CCRF-CEM leukemia = tested on: CCRF-CEM leukemia
EKVX NSCLC = tested on: EKVX NSCLC
ACHN renal = tested on: ACHN renal
CAKI-1 renal = tested on: CAKI-1 renal
MOLT-4 leukemia = tested on: MOLT-4 leukemia
T-47D breast = tested on: T-47D breast
RPMI-8226 leukemia = tested on: RPMI-8226 leukemia
786-0 renal = tested on: 786-0 renal
MDA-MB-231 breast = tested on: MDA-MB-231 breast
U251 CNS = tested on: U251 CNS
MCF7 breast = tested on: MCF7 breast
IGROV1 ovarian = tested on: IGROV1 ovarian
OVCAR-3 ovarian = tested on: OVCAR-3 ovarian
UACC-257 melanoma = tested on: UACC-257 melanoma
MALME-3M melanoma = tested on: MALME-3M melanoma
SK-MEL-5 melanoma = tested on: SK-MEL-5 melanoma
SR leukemia = tested on: SR leukemia
KM12 colon = tested on: KM12 colon
LOX IMVI melanoma = tested on: LOX IMVI melanoma
RXF 393 renal = tested on: RXF 393 renal
HOP-62 NSCLC = tested on: HOP-62 NSCLC
SF-539 CNS = tested on: SF-539 CNS
NCI-H522 lung = tested on: NCI-H522 lung
NCI/ADR-RES ovarian = tested on: NCI/ADR-RES ovarian
DU-145 prostate = tested on: DU-145 prostate
SW-620 colon = tested on: SW-620 colon
HCC-2998 colon = tested on: HCC-2998 colon
SK-MEL-2 melanoma = tested on: SK-MEL-2 melanoma
A498 renal = tested on: A498 renal
A549 NSCLC = tested on: A549 NSCLC
SF-268 CNS = tested on: SF-268 CNS
UACC-62 melanoma = tested on: UACC-62 melanoma
NCI-H460 lung = tested on: NCI-H460 lung
OVCAR-4 ovarian = tested on: OVCAR-4 ovarian
SNB-19 CNS = tested on: SNB-19 CNS
SK-OV-3 ovarian = tested on: SK-OV-3 ovarian
SN12C renal = tested on: SN12C renal
SK-MEL-28 melanoma = tested on: SK-MEL-28 melanoma
HL-60(TB) leukemia = tested on: HL-60(TB) leukemia
HS 578T breast = tested on: HS 578T breast
K-562 leukemia = tested on: K-562 leukemia
MDA-N = tested on: MDA-N
NCI-H226 lung = tested on: NCI-H226 lung
PC-3 prostate = tested on: PC-3 prostate
BT-549 breast = tested on: BT-549 breast
SF-295 CNS = tested on: SF-295 CNS
M14 melanoma = tested on: M14 melanoma
HT29 colon = tested on: HT29 colon
MDA-MB-435 = tested on: MDA-MB-435
OVCAR-5 ovarian = tested on: OVCAR-5 ovarian
SNB-75 CNS = tested on: SNB-75 CNS
HOP-92 NSCLC = tested on: HOP-92 NSCLC
OVCAR-8 ovarian = tested on: OVCAR-8 ovarian
HCT-116 colon = tested on: HCT-116 colon
COLO 205 colon = tested on: COLO 205 colon
TK-10 renal = tested on: TK-10 renal

In the case of CC(=O)c1c(-c2ccc(Cl)cc2)c(C#N)c(=S)n(C2OC(CO)C(O)C(O)C2O)c1-c1ccccc1 (centres undefined), the TGI (NCI-H23 lung) was greater than 100 µM, the TGI (HCT-15 colon) was greater than 100 µM and the GI50 (CCRF-CEM leukemia) was 13.1 µM and 55.4 µM. The TGI (CCRF-CEM leukemia) was 99.5 µM and > 100 µM, the GI50 (EKVX NSCLC) was 99.7 µM and 22.2 µM and the TGI (EKVX NSCLC) was greater than 100 µM. For the same compound, the TGI (ACHN renal) was greater than 100 µM, the TGI (CAKI-1 renal) was greater than 100 µM and the TGI (MOLT-4 leukemia) was 29.2 µM and > 100 µM. For the same compound, the TGI (T-47D breast) was greater than 100 µM, the TGI (RPMI-8226 leukemia) was greater than 100 µM and the GI50 (786-0 renal) was 48.8 µM and > 100 µM. For the same compound, the TGI (786-0 renal) was greater than 100 µM, the GI50 (MDA-MB-231 breast) was > 22.6 µM and 76.3 µM and the TGI (MDA-MB-231 breast) was greater than 100 µM. For the same compound, the GI50 (U251 CNS) was 42.8 µM and > 100 µM, the TGI (U251 CNS) was greater than 100 µM and the TGI (MCF7 breast) was greater than 100 µM. The TGI (IGROV1 ovarian) was greater than 100 µM, the TGI (OVCAR-3 ovarian) was greater than 100 µM and the TGI (UACC-257 melanoma) was greater than 100 µM. The TGI (MALME-3M melanoma) was greater than 100 µM, the GI50 (SK-MEL-5 melanoma) was 31.8 µM and > 100 µM and the TGI (SK-MEL-5 melanoma) was greater than 100 µM. The TGI (SR leukemia) was 61.8 µM and > 100 µM, the TGI (KM12 colon) was greater than 100 µM and the GI50 (LOX IMVI melanoma) was 15.9 µM and > 100 µM. For the same compound, the TGI (LOX IMVI melanoma) was greater than 100 µM, the TGI (RXF 393 renal) was greater than 100 µM and the GI50 (HOP-62 NSCLC) was 39.8 µM and > 100 µM. For the same compound, the TGI (HOP-62 NSCLC) was greater than 100 µM, the GI50 (SF-539 CNS) was greater than 100 µM and the TGI (SF-539 CNS) was greater than 100 µM. It also gave a TGI (NCI-H522 lung) greater than 100 µM, a TGI (NCI/ADR-RES ovarian) greater than 100 µM and a TGI (DU-145 prostate) greater than 100 µM. The TGI (SW-620 colon) was greater than 100 µM, the TGI (HCC-2998 colon) was greater than 100 µM and the GI50 (SK-MEL-2 melanoma) was > 84.5 µM and 35 µM. For the same compound, the TGI (SK-MEL-2 melanoma) was greater than 100 µM, the GI50 (A498 renal) was > 100 µM and 49.7 µM and the TGI (A498 renal) was greater than 100 µM. The GI50 (A549 NSCLC) was 46.7 µM and > 100 µM, the TGI (A549 NSCLC) was greater than 100 µM and the TGI (SF-268 CNS) was greater than 100 µM. For the same compound, the GI50 (UACC-62 melanoma) was 4.85 µM and 21.9 µM, the TGI (UACC-62 melanoma) was greater than 100 µM and the TGI (NCI-H460 lung) was greater than 100 µM. For the same compound, the GI50 (OVCAR-4 ovarian) was > 86.4 µM and 14.7 µM, the TGI (OVCAR-4 ovarian) was greater than 100 µM and the GI50 (SNB-19 CNS) was 34.8 µM and > 100 µM. The TGI (SNB-19 CNS) was greater than 100 µM, the TGI (SK-OV-3 ovarian) was greater than 100 µM and the TGI (SN12C renal) was greater than 100 µM. The TGI (SK-MEL-28 melanoma) was greater than 100 µM, the GI50 (HL-60(TB) leukemia) was 30.9 µM and 62.2 µM and the TGI (HL-60(TB) leukemia) was greater than 100 µM. The TGI (HS 578T breast) was greater than 100 µM, the GI50 (K-562 leukemia) was 26 µM and > 100 µM and the TGI (K-562 leukemia) was greater than 100 µM. The TGI (MDA-N) was greater than 100 µM, the TGI (NCI-H226 lung) was greater than 100 µM and the GI50 (PC-3 prostate) was 7.97 µM and 58.6 µM. It also gave a TGI (PC-3 prostate) greater than 100 µM, a TGI (BT-549 breast) greater than 100 µM and a TGI (SF-295 CNS) greater than 100 µM. It also gave a TGI (M14 melanoma) greater than 100 µM, a TGI (HT29 colon) greater than 100 µM and a TGI (MDA-MB-435) greater than 100 µM. For the same compound, the GI50 (OVCAR-5 ovarian) was greater than 100 µM, the TGI (OVCAR-5 ovarian) was greater than 100 µM and the TGI (SNB-75 CNS) was greater than 100 µM. The TGI (HOP-92 NSCLC) was > 100 µM and 74.1 µM, the TGI (OVCAR-8 ovarian) was greater than 100 µM and the GI50 (HCT-116 colon) was 17.4 µM and > 100 µM. The TGI (HCT-116 colon) was greater than 100 µM, the GI50 (COLO 205 colon) was 47.3 µM and > 100 µM and the TGI (COLO 205 colon) was greater than 100 µM. The TGI (TK-10 renal) was greater than 100 µM.
